Measured values taken from the NIST ThermoML archive (doi:10.1021/je900284z).
Where “and” joins values, the source holds several entries; their conditions need not be identical. Equal values may be shown once.

Details: Liquid; for viscosity: Falling or rolling sphere viscometry; for mass density: 101.33 kPa

CCCCC(CC)COC(=O)c1ccccc1 (stereo not drawn) [2-ethylhexyl benzoate]
Details | viscosity
263.15 K, 100 kPa | 29.42 mPa·s and 29.39 mPa·s
268.15 K, 100 kPa | 21.45 mPa·s and 21.43 mPa·s
273.15 K, 100 kPa | 16.21 mPa·s and 16.22 mPa·s
273.15 K, 700 kPa | 16.39 mPa·s
273.15 K, 14200 kPa | 20.88 mPa·s
273.15 K, 16100 kPa | 22.11 mPa·s
273.15 K, 29700 kPa | 28.8 mPa·s
273.15 K, 45500 kPa | 38.79 mPa·s
273.15 K, 47100 kPa | 39.5 mPa·s
273.15 K, 60900 kPa | 51.94 mPa·s
273.15 K, 81800 kPa | 78.37 mPa·s
273.15 K, 102000 kPa | 114.7 mPa·s
273.15 K, 110600 kPa | 132.5 mPa·s
273.15 K, 149800 kPa | 286.9 mPa·s
283.15 K, 100 kPa | 10.07 mPa·s
293.15 K, 100 kPa | 6.753 mPa·s and 6.756 mPa·s
298.15 K, 100 kPa | 5.574 mPa·s and 5.529 mPa·s
298.15 K, 300 kPa | 5.708 mPa·s
298.15 K, 900 kPa | 5.771 mPa·s
298.15 K, 26000 kPa | 8.4 mPa·s
298.15 K, 50900 kPa | 12.07 mPa·s
298.15 K, 75600 kPa | 17.19 mPa·s
298.15 K, 100800 kPa | 24.58 mPa·s
298.15 K, 125500 kPa | 34.9 mPa·s
298.15 K, 150900 kPa | 49.92 mPa·s
298.15 K, 175100 kPa | 70.34 mPa·s
298.15 K, 200700 kPa | 101 mPa·s
298.15 K, 225200 kPa | 143.1 mPa·s
298.15 K, 250700 kPa | 206 mPa·s
303.15 K, 100 kPa | 4.847 mPa·s
313.15 K, 100 kPa | 3.641 mPa·s and 3.644 mPa·s and 3.646 mPa·s
323.15 K, 100 kPa | 2.859 mPa·s and 2.857 mPa·s
323.15 K, 25900 kPa | 3.952 mPa·s
323.15 K, 50900 kPa | 5.32 mPa·s
323.15 K, 75800 kPa | 7.088 mPa·s
323.15 K, 100600 kPa | 9.368 mPa·s
323.15 K, 125700 kPa | 12.33 mPa·s
323.15 K, 150400 kPa | 16.17 mPa·s
323.15 K, 174800 kPa | 20.75 mPa·s
323.15 K, 175600 kPa | 21.33 mPa·s
323.15 K, 200800 kPa | 28.03 mPa·s
323.15 K, 225600 kPa | 36.82 mPa·s
323.15 K, 250400 kPa | 48.19 mPa·s
323.15 K, 275200 kPa | 62.86 mPa·s
323.15 K, 300000 kPa | 82.18 mPa·s
323.15 K, 300100 kPa | 82.04 mPa·s
333.15 K, 100 kPa | 2.3 mPa·s
343.15 K, 100 kPa | 1.834 mPa·s [middle of 5 runs]
348.15 K, 100 kPa | 1.728 mPa·s and 1.73 mPa·s
348.15 K, 10800 kPa | 1.956 mPa·s
348.15 K, 25400 kPa | 2.3 mPa·s
348.15 K, 50800 kPa | 2.994 mPa·s
348.15 K, 75900 kPa | 3.826 mPa·s
348.15 K, 100800 kPa | 4.842 mPa·s
348.15 K, 125700 kPa | 6.009 mPa·s
348.15 K, 150700 kPa | 7.634 mPa·s
348.15 K, 175700 kPa | 9.511 mPa·s
348.15 K, 200700 kPa | 11.85 mPa·s
348.15 K, 225700 kPa | 14.77 mPa·s
348.15 K, 250500 kPa | 18.23 mPa·s
348.15 K, 275300 kPa | 22.56 mPa·s
348.15 K, 276300 kPa | 22.83 mPa·s
348.15 K, 302300 kPa | 28.48 mPa·s
348.15 K, 315200 kPa | 31.58 mPa·s

Details | mass density [kg/m3]
273.15 K | 981.12
278.15 K | 977.18
283.15 K | 973.25
288.15 K | 969.32
293.15 K | 965.4
298.15 K | 961.49
303.15 K | 957.57
313.15 K | 949.73
323.15 K | 941.92
333.15 K | 934.11
343.15 K | 926.28
353.15 K | 918.45
363.15 K | 910.61

CCCCC(CC)COC(=O)c1ccccc1C(=O)OCC(CC)CCCC (stereo not drawn) [bis(2-ethylhexyl) 1,2-benzenedicarboxylate]
Details | viscosity
273.15 K, 100 kPa | 359.9 mPa·s and 359.7 mPa·s
273.15 K, 24100 kPa | 680.7 mPa·s
283.15 K, 100 kPa | 158 mPa·s and 158.6 mPa·s
283.15 K, 400 kPa | 160.2 mPa·s
283.15 K, 20800 kPa | 266.5 mPa·s
283.15 K, 41000 kPa | 430.5 mPa·s
283.15 K, 60000 kPa | 663.5 mPa·s
283.15 K, 80400 kPa | 1034 mPa·s
283.15 K, 100100 kPa | 1566 mPa·s
283.15 K, 123400 kPa | 2473 mPa·s
298.15 K, 100 kPa | 58.79 mPa·s and 57.58 mPa·s and 57.59 mPa·s
298.15 K, 600 kPa | 59.35 mPa·s
298.15 K, 25800 kPa | 103.4 mPa·s
298.15 K, 50000 kPa | 167.4 mPa·s
298.15 K, 50900 kPa | 174.2 mPa·s
298.15 K, 76300 kPa | 287.8 mPa·s
298.15 K, 100500 kPa | 455.2 mPa·s
298.15 K, 126600 kPa | 730.7 mPa·s
298.15 K, 150400 kPa | 1103 mPa·s
298.15 K, 174300 kPa | 1631 mPa·s
298.15 K, 199800 kPa | 2527 mPa·s
303.15 K, 100 kPa | 44.29 mPa·s and 44.2 mPa·s and 43.49 mPa·s
310.93 K, 100 kPa | 28.88 mPa·s [middle of 4 runs]
310.93 K, 47400 kPa | 73.56 mPa·s
310.93 K, 75300 kPa | 120.3 mPa·s
310.93 K, 99500 kPa | 185.1 mPa·s
310.93 K, 148600 kPa | 413.1 mPa·s
310.93 K, 176000 kPa | 617.9 mPa·s
310.93 K, 201800 kPa | 912.7 mPa·s
310.93 K, 223800 kPa | 1259 mPa·s
310.93 K, 247800 kPa | 1794 mPa·s
310.93 K, 250800 kPa | 1819 mPa·s
310.93 K, 274000 kPa | 2555 mPa·s
313.15 K, 100 kPa | 26.6 mPa·s and 26.58 mPa·s
323.15 K, 100 kPa | 17.17 mPa·s and 17.01 mPa·s and 17.1 mPa·s
323.15 K, 700 kPa | 17.26 mPa·s
323.15 K, 10600 kPa | 20.76 mPa·s
323.15 K, 25700 kPa | 27.26 mPa·s
323.15 K, 50700 kPa | 42.19 mPa·s
323.15 K, 75600 kPa | 63.74 mPa·s
323.15 K, 100600 kPa | 94.67 mPa·s
323.15 K, 125600 kPa | 138.7 mPa·s
323.15 K, 150600 kPa | 200.2 mPa·s
323.15 K, 175600 kPa | 286.3 mPa·s
323.15 K, 200300 kPa | 403.4 mPa·s
323.15 K, 223100 kPa | 539 mPa·s
323.15 K, 252300 kPa | 794.8 mPa·s
323.15 K, 276700 kPa | 1055.1 mPa·s
323.15 K, 295400 kPa | 1355.1 mPa·s
323.15 K, 323700 kPa | 1952.3 mPa·s
333.15 K, 100 kPa | 11.73 mPa·s and 11.71 mPa·s
343.15 K, 100 kPa | 8.499 mPa·s and 8.51 mPa·s
348.15 K, 100 kPa | 7.416 mPa·s and 7.422 mPa·s
348.15 K, 50800 kPa | 15.52 mPa·s
348.15 K, 54100 kPa | 16.45 mPa·s
348.15 K, 75900 kPa | 22.09 mPa·s
348.15 K, 100800 kPa | 30.91 mPa·s
348.15 K, 103500 kPa | 32.17 mPa·s
348.15 K, 125800 kPa | 42.61 mPa·s
348.15 K, 150800 kPa | 58.12 mPa·s
348.15 K, 175700 kPa | 78.72 mPa·s
348.15 K, 200700 kPa | 105.6 mPa·s
348.15 K, 225500 kPa | 140.4 mPa·s
348.15 K, 250300 kPa | 185.6 mPa·s
348.15 K, 275000 kPa | 243.8 mPa·s
348.15 K, 299100 kPa | 316.7 mPa·s
348.15 K, 324100 kPa | 412.7 mPa·s
348.15 K, 348100 kPa | 529.4 mPa·s
348.15 K, 371000 kPa | 669 mPa·s

Details | mass density [kg/m3]
273.15 K | 998.82
278.15 K | 995.01
283.15 K | 991.26
293.15 K | 983.87
298.15 K | 980.15
303.15 K | 976.42
313.15 K | 968.98
323.15 K | 961.53
333.15 K | 954.11
343.15 K | 946.68
353.15 K | 939.27
363.15 K | 931.85
